Data reported in US10407388B2, “Thiourea derivatives as activators of RORα and pharmaceutical composition containing same” (SEOUL NATIONAL UNIVERSITY R & DB FOUNDATION, priority 2011, dated 2019).

Columns and labels:
ACC = test: Phosphorylation of ACC in liver of mice with high-fat diet-induced fatty liver, western blotting; format: in vivo; conditions: oral, 10 mg/kg/day or 30 mg/kg/day for 2 days; liver tissue; FIG. 11b
Description: (§1) 3 days after the diet was fed, the mice were fed the high-fat diet containing safflower oil while being orally administered JC1-40 and JC1-42, which had been diluted with 0.5% carboxymethyl cellulose, at a dose of 10 mg/kg/day or 30 mg/kg/day for 2 days. 5 days after the diet was fed, the mice were sacrificed to extract liver tissues therefrom, and the expression of proteins was analyzed by western blotting analysis. That is, after treatment, each liver tissue was homogenized in a lysis buffer containing 50 mM NaCl, 50 mM Tris pH 7.4, 5 mM EDTA, 1% NP-40, and a protease inhibitor, and then centrifuged to obtain a total cell lysate. 20 μg to 30 μg of proteins collected from the total cell lysate was subjected to 7% to 9% SDS-PAGE, and was transferred to a polyvinylidene difluoride membrane (Millipore, Bedford, Mass., USA). […] Immunoreactive proteins were detected with Amersham ECL western blotting detection reagents using an HRP-conjugated secondary antibody (Zymed Lab). Protein concentrations were quantified by BCA (Pierce) analysis, and the expression of α-tubulin was monitored as a control. […]

MCP-1 = MCP-1 in alcoholic fatty liver mice model (ELISA, western blotting); format: in vivo, mice (C57BL/6); conditions: oral, 10 mg/kg body weight once a day for 2 weeks, alcohol group
Description: (§2) Eight-week-old black male laboratory mice (C57BL/6) were divided into: 1) control (n=8); 2) JC1-40-administered control (n=8); 3) alcohol group (n=12); and 4) JC1-40-administered alcohol group (n=12), and fed a Lieber-DeCarli liquid diet (Dyets Inc, Bethlehem, Pa., USA). The Lieber-DeCarli liquid diet in the form of powder was purchased, and then water was added thereto every morning to form a liquid-type feed such that 1 ml of the feed contained 1 kcal. The alcohol group was fed a gradually increasing amount of alcohol with an increment of 0.5% during a 2-week adaptation period, and then was fed a feed containing 5% alcohol for 5 weeks. The feed of the control included maltose dextrin instead of alcohol, and for pair-feeding, the feed included maltose dextrin in an amount providing the same calories as the calories that the amount of the feed fed to the mice of the alcohol group contained. During the 5-week ingestion of 5% alcohol, JC1-40 diluted with 0.5% carboxymethyl cellulose was orally administered once a day at a dose of 10 mg/kg body weight for 2 weeks prior to sacrificing the mice. After the 5-week alcohol feeding period was completed, the mice were fasted for 12 hours, and anesthetized to incise the abdomen, and blood and liver were removed from each mouse.

LXRα = test: Expression of LXRα protein in liver of mice with high-fat diet-induced fatty liver, western blotting; format: in vivo; conditions: oral, 10 mg/kg/day or 30 mg/kg/day for 2 days; liver tissue; FIG. 11b
Description: as §1

FAS = test: Expression of FAS protein in HepG2 cells, western blotting; format: cell-based, human; conditions: for expression of FAS, which had been increased by T17: 0, 1, 10, 50, 100 μM with 1 μM T17, 24 hours, FIGS. 6b and 6c; for expression of FAS protein: 100 μM, 24 hours, FIG. 6a
Description: HepG2 cells (1×10^6 cells/well) were seeded on a 60-dish and cultured overnight in a DMEM containing 10% FBS. The HepG2 cells were maintained at 37° C. in a humidification thermostat containing 5% CO2 and 95% air. After culturing, the HepG2 cells were treated with each of the JC1-38, JC1-40, and JC1-42 compounds at a concentration of 100 μM, and, as a positive control, the HepG2 cells were treated with 2 mM metformin, which is an AMPK activator, for 24 hours. After treatment, the expression of proteins was analyzed by western blotting analysis. That is, after treatment, the HepG2 cells were destroyed on ice in a lysis buffer containing 50 mM NaCl, 50 mM Tris pH 7.4, 5 mM EDTA, 1% NP-40, and a protease inhibitor for 30 minutes, and then centrifuged to obtain a total cell lysate. 20 μg to 30 μg of proteins collected from the total cell lysate was subjected to 7% to 9% sodium dodecyl sulfate-polyacrylamide gel electrophoresis (SDS-PAGE), and was transferred to a polyvinylidene difluoride membrane (Millipore, Bedford, Mass., USA). The resulting product was subjected to blocking with 5% or 10% (w/v) nonfat dry milk in PBS containing 0.1% Tween-20, and was reacted with antibodies specific to RORα (Affinity BioReagents), LXRα, SREBP-1, FAS (Santa Cruz Biotechnology), phospho-ACC (Cell signaling), and α-tubulin (Calbiochem). Immunoreactive proteins were detected with Amersham ECL western blotting detection reagents using a horseradish peroxidase (HRP)-conjugated secondary antibody (Zymed Lab). Protein concentrations were quantified by bicinchoninic acid (BCA) (Pierce) analysis, and the expression of α-tubulin was monitored as a control. The results thereof are illustrated in FIG. 6a.
In addition, HepG2 cells were cultured under the same conditions, and then the HepG2 cells were treated with particular concentrations (0 μM, 1 μM, 10 μM, 50 μM, and 100 μM) of JC1-40 (or JC1-42) and 1 μM T17 for 24 hours. After treatment, the expression of proteins was analyzed by western blotting analysis, and the expression of α-tubulin was monitored as a control. The results thereof are illustrated in FIGS. 6b and 6c.

AMPK = test: Phosphorylation of AMPK in liver of mice with high-fat diet-induced fatty liver, western blotting; format: in vivo; conditions: oral, 10 mg/kg/day or 30 mg/kg/day for 2 days; liver tissue; FIG. 11b
Description: as §1

[1] = system: alcoholic fatty liver mice model; test: Alcoholic fatty liver mice model (Lieber-DeCarli liquid diet); format: in vivo, mice (C57BL/6); conditions: oral, 10 mg/kg body weight once a day for 2 weeks
Description: as §2

SMILES | phosphorylation of ACC (ACC) | level of cytokine MCP-1 (ELISA) (MCP-1; FIG. 16c) | expression of the MCP-1 protein (western blotting) (MCP-1; FIG. 16e) | expression of LXRα protein, which had been increased by the high-fat diet (LXRα) | expression of FAS, which had been increased by T17 (FAS) | expression of FAS protein (FAS) | phosphorylation of AMPK (AMPK) | GOT in plasma ([1]; alcohol group, FIG. 16a) | GPT in plasma ([1]; alcohol group, FIG. 16a) | level of blood triglycerides ([1]; alcohol group, FIG. 16b) | weight percentage of liver in body ([1]; alcohol group, FIG. 16d) | accumulation of alcohol-induced lipid vesicles (Hematoxyllin & Eosin) ([1]; liver tissue)
CNC(=S)NCc1ccc(OCc2ccccc2)cc1 [Compound 40, 1-(4-benzyloxy-benzyl)-3-methyl-thiourea] | increased | significantly decreased | decreased to the level of the control | decreased | decreased in a manner dependent on the concentration | decreased | increased | decreases in GPT and GOT to levels of the control | decreases in GPT and GOT to levels of the control | significantly decreased | decreased with high significance | significantly reduced
CNC(=S)NCc1ccc(Oc2ccccc2)cc1 [Compound 42, 1-(4-phenoxy-benzyl)-3-methyl-thiourea] | increased |  |  | decreased | decreased in a manner dependent on the concentration | decreased | increased |  |  |  |  | 
